# Assays:
# [1] = target: T1, Mitogen-activated protein kinase 14 (Homo sapiens, UniProt Q16539); test: Binding affinity to unphosphorylated p38alpha assessed as change in melting temperature
# [2] = target: T1, Mitogen-activated protein kinase 14; test: Binding affinity to phosphorylated p38alpha by fluoroprobe binding assay
# [3] = target: T1, Mitogen-activated protein kinase 14; test: Inhibition of p38alpha by fluoroprobe binding assay
# [4] = target: T1, Mitogen-activated protein kinase 14; test: Binding affinity to unphosphorylated p38alpha by fluoroprobe binding assay
# [5] = target: T1, Mitogen-activated protein kinase 14; test: Binding affinity to phosphorylated p38alpha assessed as change in melting temperature
# Ephrin type-B receptor 2 = target: T2, Ephrin type-B receptor 2 (Homo sapiens, UniProt P29323); test: Inhibition of EPHB2
# T2 sequence (P29323 whole entry): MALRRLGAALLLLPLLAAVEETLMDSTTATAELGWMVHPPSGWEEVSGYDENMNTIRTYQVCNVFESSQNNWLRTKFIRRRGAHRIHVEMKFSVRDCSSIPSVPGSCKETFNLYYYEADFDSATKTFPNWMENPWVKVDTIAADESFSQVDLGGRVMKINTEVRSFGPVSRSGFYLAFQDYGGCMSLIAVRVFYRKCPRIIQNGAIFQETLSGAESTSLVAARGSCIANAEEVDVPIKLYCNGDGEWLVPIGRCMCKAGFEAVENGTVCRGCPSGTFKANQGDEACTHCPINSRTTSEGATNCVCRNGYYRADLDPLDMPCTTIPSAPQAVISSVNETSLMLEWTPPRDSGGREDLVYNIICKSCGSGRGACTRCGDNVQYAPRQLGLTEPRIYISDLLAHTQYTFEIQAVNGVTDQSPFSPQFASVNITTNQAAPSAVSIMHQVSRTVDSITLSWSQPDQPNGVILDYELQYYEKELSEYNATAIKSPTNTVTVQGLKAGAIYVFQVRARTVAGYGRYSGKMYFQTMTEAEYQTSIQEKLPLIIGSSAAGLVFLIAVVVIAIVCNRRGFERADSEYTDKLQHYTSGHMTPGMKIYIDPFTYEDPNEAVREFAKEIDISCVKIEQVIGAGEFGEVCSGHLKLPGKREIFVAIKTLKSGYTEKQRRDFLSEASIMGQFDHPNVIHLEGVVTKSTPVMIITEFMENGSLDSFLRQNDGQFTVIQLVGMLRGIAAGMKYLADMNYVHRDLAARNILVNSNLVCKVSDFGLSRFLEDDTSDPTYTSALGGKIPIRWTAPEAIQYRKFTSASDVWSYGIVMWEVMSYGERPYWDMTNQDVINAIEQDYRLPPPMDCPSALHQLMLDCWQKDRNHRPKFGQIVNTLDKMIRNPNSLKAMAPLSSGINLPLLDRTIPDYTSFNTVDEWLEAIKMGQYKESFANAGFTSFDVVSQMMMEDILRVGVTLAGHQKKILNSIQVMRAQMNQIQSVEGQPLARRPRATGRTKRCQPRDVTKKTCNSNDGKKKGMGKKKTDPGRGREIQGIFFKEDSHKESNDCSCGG
# [6] = target: Serine/threonine-protein kinase B-raf (Homo sapiens, UniProt P15056); test: Inhibition of BRAF
# Chain of Serine/threonine-protein kinase B-raf (P15056 whole entry): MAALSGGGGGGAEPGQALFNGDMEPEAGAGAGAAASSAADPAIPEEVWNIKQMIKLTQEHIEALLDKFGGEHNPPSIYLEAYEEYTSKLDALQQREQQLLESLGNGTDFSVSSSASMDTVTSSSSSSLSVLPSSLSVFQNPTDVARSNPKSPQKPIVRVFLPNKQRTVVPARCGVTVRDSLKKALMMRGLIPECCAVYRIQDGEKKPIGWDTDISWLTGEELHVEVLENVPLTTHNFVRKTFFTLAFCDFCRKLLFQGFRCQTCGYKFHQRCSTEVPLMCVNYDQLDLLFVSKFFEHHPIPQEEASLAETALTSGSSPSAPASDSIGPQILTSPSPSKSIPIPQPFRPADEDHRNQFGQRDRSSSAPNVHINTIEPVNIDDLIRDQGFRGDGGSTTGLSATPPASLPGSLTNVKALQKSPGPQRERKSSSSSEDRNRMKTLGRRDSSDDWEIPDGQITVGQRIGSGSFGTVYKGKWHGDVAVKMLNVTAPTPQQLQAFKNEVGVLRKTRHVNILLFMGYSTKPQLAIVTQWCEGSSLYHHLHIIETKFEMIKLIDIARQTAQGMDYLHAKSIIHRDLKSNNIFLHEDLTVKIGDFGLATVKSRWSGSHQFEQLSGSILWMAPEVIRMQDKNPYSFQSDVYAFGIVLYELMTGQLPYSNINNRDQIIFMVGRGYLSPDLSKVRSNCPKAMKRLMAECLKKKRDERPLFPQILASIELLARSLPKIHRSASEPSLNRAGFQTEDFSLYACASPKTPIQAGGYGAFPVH
# [7] = target: T1, Mitogen-activated protein kinase 14; test: Inhibition of p38alpha autophosphorylation
# T1 sequence (Q16539 whole entry): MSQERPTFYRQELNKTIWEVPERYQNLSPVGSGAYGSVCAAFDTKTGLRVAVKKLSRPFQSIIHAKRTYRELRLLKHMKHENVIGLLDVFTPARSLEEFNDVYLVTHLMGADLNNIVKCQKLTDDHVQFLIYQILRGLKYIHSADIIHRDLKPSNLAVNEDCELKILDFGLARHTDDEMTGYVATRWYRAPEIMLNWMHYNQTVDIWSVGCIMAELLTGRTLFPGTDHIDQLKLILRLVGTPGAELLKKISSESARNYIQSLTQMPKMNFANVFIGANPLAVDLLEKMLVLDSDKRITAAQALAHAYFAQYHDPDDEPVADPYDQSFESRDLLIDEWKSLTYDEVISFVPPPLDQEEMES
SMILES,ΔTm [1],IC50 [3],IC50 [4],ΔTm [5],IC50 [6],IC50 [2],IC50 (Ephrin type-B receptor 2),IC50 [7]
NC(=O)Cc1cccc(-n2nc(C3CCCC3)cc2NC(=O)Nc2cccc(Cl)c2Cl)c1,12.2 °C,–,–,–,–,10 nM,–,–
CC(C)(C)c1cc(NC(=O)Nc2cccc3ccccc23)n(-c2cccc(C(=O)N3C(=O)OC[C@@H]3c3ccccc3)c2)n1,–,> 10000 nM,–,–,–,–,–,–
NC(=O)Cc1cccc(-n2nc(-c3ccsc3)cc2NC(=O)Nc2cccc(Cl)c2Cl)c1,11.6 °C,–,15 nM,9.3 °C,–,28 nM,–,–
CC(C)(C)c1cc(NC(=O)Nc2cccc(Cl)c2Cl)n(-c2cccc(CC(N)=O)c2)n1,12.8 °C,–,–,9.1 °C,17 nM,–,82 nM,–
CC(C)(C)c1cc(NC(=O)Nc2cccc3ccccc23)n(-c2cccc(CC(N)=O)c2)n1,9.1 °C,–,–,8.6 °C,–,–,–,–
NC(=O)Cc1cccc(-n2nc(-c3cccs3)cc2NC(=O)Nc2cccc(Cl)c2Cl)c1,11.2 °C,–,–,8.5 °C,–,66 nM,> 50000 nM,> 5000 nM

# Further lines, with some results ahead:
ΔTm [1],IC50 [3],IC50 [4],ΔTm [5],IC50 [6],SMILES,IC50 [2],IC50 (Ephrin type-B receptor 2),IC50 [7]
8.8 °C,–,25 nM,7.1 °C,–,NC(=O)Cc1cccc(-n2nc(-c3ccccc3F)cc2NC(=O)Nc2cccc(Cl)c2Cl)c1,40 nM,–,–
–,7 nM,–,–,–,CC(C)(C)c1cc(NC(=O)Nc2cccc(Cl)c2Cl)n(-c2ccc(CC(=O)N3CCS(=O)(=O)CC3)cc2)n1,–,–,–
8 °C,–,119 nM,5.4 °C,–,NC(=O)Cc1cccc(-n2nc(-c3ccccc3)cc2NC(=O)Nc2cccc(Cl)c2Cl)c1,79 nM,–,–
